Source: US11560366B2, “Bicyclo[1.1.1]pentane inhibitors of dual leucine zipper (DLK) kinase for the treatment of disease” (Board of Regents, The University of Texas System, priority 2019, dated 2023)

What was measured:
[1] = Metabolic stability in liver microsomes, dog; type: in vitro ADME; conditions: Beagle, 0.5 mg/mL microsomes, NADPH, 45 minutes, 37° C., read-out: Half-life in liver microsomes (t1/2, minutes)
Procedure: (§1) The test compound was incubated with liver microsomes (0.5 mg/mL) from CD-1 mouse, Sprague Dawley rat, Beagle dog, Cynomolgus monkey, and human in the presence of NADPH for 45 minutes at 37° C. The % parent remaining over time was determined by LC-MS/MS, using peak area ratios. Half-life (t1/2) was calculated using the following equation: t1/2=ln2/k, where k is the rate constant of parent decay over time (slope of the plot of log[% parent remaining] versus time).

[2] = Metabolic stability in liver microsomes, human; type: in vitro ADME; conditions: 0.5 mg/mL microsomes, NADPH, 45 minutes, 37° C., read-out: Half-life in liver microsomes (t1/2, minutes)
Procedure: as §1

[3] = Mouse pharmacokinetics, single dose; type: in vivo, male C57BL/6 mice; conditions: for Kp / unbound brain-to-plasma ratio (Kp,uu): male, C57BL/6, mouse, brain and plasma, po, 10 mg/kg, based on AUC; for Kp / unbound brain-to-plasma ratio (Kp,uu) / clearance / half-life / Vd / AUC(0-t) / Cmax / bioavailability: male C57BL/6 mice; for Kp / unbound brain-to-plasma ratio (Kp,uu) / AUC(0-t) / Cmax / bioavailability: oral dose 10 mg/kg; for Kp: read-out: Brain/Plasma Ratio; for unbound brain-to-plasma ratio (Kp,uu): read-out: Free Brain/Plasma Ratio; for clearance / half-life / Vd / AUC(0-t) / Cmax / bioavailability: mouse; for clearance / half-life / Vd: in vivo, IV dose 0.3 mg/kg (1a, 4b, 13, 14b, 16; IV dose of 8a, 9b not stated); for Vd: read-out: Vss; for AUC(0-t) / Cmax / bioavailability: plasma; for clearance in mice, comparison in words / half-life in mice, comparison in words: relative to comparator compounds 13 or 14b
[4] = Metabolic stability in liver microsomes, mouse; type: in vitro ADME, CD-1 mouse; conditions: CD-1, liver microsomes, 0.5 mg/mL microsomes, NADPH, 45 minutes, 37° C., read-out: Half-life in liver microsomes (t1/2, minutes)
Procedure: as §1

[5] = Metabolic stability in liver microsome preparations, overall comparison; type: in vitro ADME; conditions: relative to comparator compounds 13 or 14/14b (WO2018207072)
Procedure: as §1

[6] = Metabolic stability in liver microsomes, rat; type: in vitro ADME; conditions: Sprague Dawley, 0.5 mg/mL microsomes, NADPH, 45 minutes, 37° C., read-out: Half-life in liver microsomes (t1/2, minutes)
Procedure: as §1

[7] = Metabolic stability in liver microsomes, monkey; type: in vitro ADME, Cynomolgus monkey; conditions: 0.5 mg/mL microsomes, NADPH, 45 minutes, 37° C., read-out: Half-life in liver microsomes (t1/2, minutes)
Procedure: as §1

[8] = biological target: human DLK (Homo sapiens (Human), UniProt Q12852); assay: DLK Kd determination (KINOMEscan KdELECT, DiscoveRx); type: binding; conditions: read-out: Kd
Procedure: The DLK dissociation constants (Kd) have been determined in the KINOMEscan KdELECT Service at DiscoveRx.
A fusion protein of full length of human DLK (amino acids 1-859) and the DNA binding domain of NFkB was expressed in transiently transfected HEK293 cells. From these HEK 293 cells, extracts were prepared in M-PER extraction buffer (Pierce) in the presence of Protease Inhibitor Cocktail Complete (Roche) and Phosphatase Inhibitor Cocktail Set II (Merck) per manufacturers' instructions. The DLK fusion protein was labeled with a chimeric double-stranded DNA tag containing the NFkB binding site (5′-[sequence]-3′, SEQ ID NO:1) fused to an amplicon for qPCR readout, which was added directly to the expression extract (the final concentration of DNA-tag in the binding reaction is 0.1 nM).
The liganded beads were blocked with excess biotin and washed with blocking buffer (SeaBlock (Pierce), 1% BSA, 0.05% Tween 20, 1 mM DTT) to remove unbound ligand and to reduce nonspecific binding.
Extracts were used directly in binding assays without any enzyme purification steps at a >10,000-fold overall stock dilution (final DNA-tagged enzyme concentration <0.1 nM). Extracts were loaded with DNA-tag and diluted into the binding reaction in a two step process. First extracts were diluted 1:100 in 1× binding buffer (PBS/0.05% Tween 20/10 mM DTT/0.1% BSA/2 μg/ml sonicated salmon sperm DNA) containing 10 nM DNA-tag. This dilution was allowed to equilibrate at room temperature for 15 minutes and then subsequently diluted 1:100 in 1× binding buffer. Test compounds were prepared as 111× stocks in 100% DMSO. Kds were determined using an 11-point 3-fold compound dilution series with three DMSO control points. […] The compounds were then diluted directly into the assays such that the final concentration of DMSO was 0.9%. All reactions performed in polypropylene 384-well plates. Each was a final volume of 0.02 mL. Assays were incubated with shaking for 1 hour at room temperature. Then the beads were pelleted and washed with wash buffer (1×PBS, 0.05% Tween 20) to remove displaced kinase and test compound. […] The kinase concentration in the eluates was measured by qPCR. qPCR reactions were assembled by adding 2.5 μL of kinase eluate to 7.5 μL of qPCR master mix containing 0.15 μM amplicon primers and 0.15 μM amplicon probe.
Test compounds were prepared as 111× stocks in 100% DMSO. Kds were determined using an 11-point 3-fold compound dilution series with three DMSO control points. […] The compounds were then diluted directly into the assays such that the final concentration of DMSO was 0.9%. The Kds were determined using a compound top concentration of 30,000 nM. Kd measurements were performed in duplicate.
Binding constants (Kds) were calculated with a standard dose-response curve using the Hill equation:
The Hill Slope was set to −1.

[9] = Rat pharmacokinetics, single dose; type: in vivo, Wistar Han rats; conditions: for clearance / half-life / Vd / AUC(0-t) / Cmax / bioavailability: rat, in vivo, Wistar Han rats; for clearance / half-life / Vd: IV dose 1 mg/kg; for Vd: read-out: Vss; for AUC(0-t) / Cmax / bioavailability: oral dose 3 mg/kg; for clearance in rats, comparison in words / half-life in rats, comparison in words: relative to comparator compound 13
Procedure: Pharmacokinetics for compounds 13, 1a, and 9b were determined using single dosage of Wistar Han rats using techniques that are well known in the art.

human DLK, sequence (Q12852 whole entry): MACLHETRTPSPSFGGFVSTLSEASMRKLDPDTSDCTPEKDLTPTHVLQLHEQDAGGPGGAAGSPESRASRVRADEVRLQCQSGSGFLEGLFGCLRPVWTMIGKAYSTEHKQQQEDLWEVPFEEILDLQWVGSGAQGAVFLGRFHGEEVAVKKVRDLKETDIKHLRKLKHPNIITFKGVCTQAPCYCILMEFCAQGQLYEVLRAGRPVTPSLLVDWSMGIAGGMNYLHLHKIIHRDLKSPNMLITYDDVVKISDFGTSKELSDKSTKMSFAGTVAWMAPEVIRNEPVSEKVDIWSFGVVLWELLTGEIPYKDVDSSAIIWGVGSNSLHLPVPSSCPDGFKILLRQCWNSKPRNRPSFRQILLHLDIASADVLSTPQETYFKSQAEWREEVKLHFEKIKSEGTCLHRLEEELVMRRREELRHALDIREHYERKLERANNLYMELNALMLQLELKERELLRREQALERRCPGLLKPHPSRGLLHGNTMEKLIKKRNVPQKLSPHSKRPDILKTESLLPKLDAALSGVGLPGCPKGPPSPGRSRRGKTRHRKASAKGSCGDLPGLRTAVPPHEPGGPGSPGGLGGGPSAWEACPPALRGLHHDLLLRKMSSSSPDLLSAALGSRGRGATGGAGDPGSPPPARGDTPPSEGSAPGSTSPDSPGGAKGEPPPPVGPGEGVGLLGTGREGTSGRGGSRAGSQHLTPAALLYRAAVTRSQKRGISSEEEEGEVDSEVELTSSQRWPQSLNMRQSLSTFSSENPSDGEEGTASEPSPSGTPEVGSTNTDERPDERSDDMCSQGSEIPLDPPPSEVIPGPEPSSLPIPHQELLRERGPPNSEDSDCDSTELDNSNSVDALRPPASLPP

Row | Compound | half-life [1] | half-life [2] | Kp [3] | unbound brain-to-plasma ratio (Kp,uu) [3] | clearance [3] | half-life [3] | Vd [3] | AUC(0-t) [3] | Cmax [3] | bioavailability [3] | clearance in mice, comparison in words [3] | half-life in mice, comparison in words [3] | half-life [4] | microsomal stability, comparison in words [5] | half-life [6] | half-life [7] | Kd [8] | clearance [9] | half-life [9] | Vd [9] | other results
1 | Nc1ncc(-c2cn(C34CC(F)(C3)C4)c([C@@H](O)C(F)(F)F)n2)cc1OC(F)(F)F (single isomer, unassigned) [Example 1a] | 287 min | 558 min | 1.77 | 0.92 | 4.3 mL/min/kg | 12.7 h | 4.5 L/kg | 111 µM·h | 6360 nM | 154% | reduced clearance | longer half-life | 378 min | improvements to microsomal stability | 154 min | 182 min | 2.2 nM | 5.9 mL/min/kg | 11.5 h | 4.9 L/kg | AUC(0-t) [9]: 16.8 µM·h; Cmax [9]: 1310 nM; bioavailability [9]: 103%; clearance in rats, comparison in words [9]: reduced clearance; half-life in rats, comparison in words [9]: longer half-life
2 | Nc1ncc(-c2cn(C34CC(N5CCC(F)(F)CC5)(C3)C4)c([C@H](O)C(F)(F)F)n2)cc1OC(F)(F)F (single isomer, unassigned) [Example 9b] | 240 min | 297 min | 0.7 | 0.31 | 3.9 mL/min/kg | 15.9 h | 4.8 L/kg | 39.6 µM·h | 2310 nM | 70.5% | reduced clearance | longer half-life | 240 min | improvements to microsomal stability | 581 min | 331 min | 1 nM | 2.8 mL/min/kg | 22.7 h | 4.7 L/kg | AUC(0-t) [9]: 19.2 µM·h; Cmax [9]: 1050 nM; bioavailability [9]: 95.9%; clearance in rats, comparison in words [9]: reduced clearance; half-life in rats, comparison in words [9]: longer half-life
